For 25 compounds, IC50 results are on record in patent US9567342B2, “Certain protein kinase inhibitors” (SHANGHAI FOCHON PHARMACEUTICAL CO., LTD., priority 2012, dated 2017).

This assay relates to SU-DHL-1 cells. Put plainly: Inhibition activity of cell proliferation (CCK-8 assay). Format: cell-based. Particulars: Homo sapiens, 72 h exposure. As for the experimental part:
SU-DHL-1 cells were seeded in 96-well tissue culture plates. On the next day, cells were exposed to various concentrations of compounds and further cultured for 72 h. Cell proliferation was then determined using Cell Counting Kit-8 [(CCK-8), Dojindo]assay. Briefly, add 10 μL of the CCK-8 solution to each well of the plate. Incubate the plate for 1-4 hours in the incubator. Measure the absorbance at 450 nm using a multi-well spectrophotometer (SpectraMAX 190, Molecular Devices). The inhibition rate (%) was calculated using the following equation: [1−(A450 Compound/A450 Control)]×100%. IC50 values were calculated according to inhibition curve by four-parameter fit.
On the technique in general: Tetrazolium assays rely on reduction of a dye to a coloured formazan, in cell work by metabolically active cells.

Some results are limits rather than exact numbers.

For the compound `Cc1cc(Nc2ncc(Cl)c(Nc3ccccc3S(=O)(=O)C(C)C)n2)c2c(c1C1CCN(CC(N)=O)CC1)C[C@H](C)O2` [Example 25, (S)-2-(4-(7-((5-chloro-4-((2-(isopropylsulfonyl)phenyl)amino)pyrimidin-2-yl)amino)-2,5-dimethyl-2,3-dihydrobenzofuran-4-yl)piperidin-1-yl)acetamide], inhibition was half-maximal at 0.0363 µM (IC50). Next, `Cc1cc(Nc2ncc(Cl)c(Nc3ccccc3S(=O)(=O)C(C)C)n2)c2c(c1C1CCN(C(=O)[C@H](C)O)CC1)C[C@@H](C)O2` [Example 38, (S)-1-(4-((R)-7-((5-chloro-4-((2-(isopropylsulfonyl)phenyl)amino)pyrimidin-2-yl)amino)-2,5-dimethyl-2,3-dihydrobenzofuran-4-yl)piperidin-1-yl)-2-hydroxypropan-1-one]: 0.0136 µM; `Cc1cc(Nc2ncc(Cl)c(Nc3ccccc3S(=O)(=O)C(C)C)n2)c2c(c1C1CCN(C(N)=O)CC1)C[C@H](C)O2` [Example 43, (S)-4-(7-((5-chloro-4-((2-(isopropylsulfonyl)phenyl)amino)pyrimidin-2-yl)amino)-2,5-dimethyl-2,3-dihydrobenzofuran-4-yl)piperidine-1-carboxamide]: 0.107 µM; `Cc1cc(Nc2ncc(Cl)c(Nc3ccccc3S(=O)(=O)C(C)C)n2)c2c(c1C1CCN(C)CC1)CCO2` [Example 14]: 0.0066 µM. For `Cc1cc(Nc2ncc(Cl)c(Nc3ccccc3S(=O)(=O)C(C)C)n2)c2c(c1C1CCN(C[C@@H](C)O)CC1)C[C@H](C)O2` [Example 35, (R)-1-(4-((S)-7-((5-chloro-4-((2-(isopropylsulfonyl)phenyl)amino)pyrimidin-2-yl)amino)-2,5-dimethyl-2,3-dihydrobenzofuran-4-yl)piperidin-1-yl)propan-2-ol], the IC50 (as a rule, the point on the concentration scale where inhibition reaches its midpoint) turned out to be 0.0369 µM. For `Cc1cc(Nc2ncc(Cl)c(Nc3ccccc3S(=O)(=O)C(C)C)n2)c2c(c1C1CCN(CCO)CC1)C[C@@H](C)O2` [Example 33, (R)-2-(4-(7-((5-chloro-4-((2-(isopropylsulfonyl)phenyl)amino)pyrimidin-2-yl)amino)-2,5-dimethyl-2,3-dihydrobenzofuran-4-yl)piperidin-1-yl)ethanol], the 50% inhibitory concentration (IC50) was 0.0118 µM. As to `Cc1cc(Nc2ncc(Cl)c(Nc3ccccc3S(=O)(=O)C(C)C)n2)c2c(c1C1CCN(C(=O)CN)CC1)C[C@H](C)O2` [Example 42, (S)-2-amino-1-(4-(7-((5-chloro-4-((2-(isopropylsulfonyl)phenyl)amino)pyrimidin-2-yl)amino)-2,5-dimethyl-2,3-dihydrobenzofuran-4-yl)piperidin-1-yl)ethanone], half-maximal inhibition (IC50) required 0.0546 µM.

Compound `Cc1cc(Nc2ncc(Cl)c(Nc3ccccc3S(=O)(=O)C(C)C)n2)c2c(c1C(=O)N1CCOCC1)C[C@H](C)O2` [Example 48, (S)-(7-((5-chloro-4-((2-(isopropylsulfonyl)phenyl)amino)pyrimidin-2-yl)amino)-2,5-dimethyl-2,3-dihydrobenzofuran-4-yl)(morpholino)methanone] had an IC50 of 0.219 µM.

With `Cc1cc(Nc2nc(Nc3ccccc3S(=O)(=O)C(C)C)c3c(C)n[nH]c3n2)c2c(c1C1CCNCC1)C[C@H](C)O2` [Example 5], the IC50 turned out to be 0.0121 µM. Compound `Cc1cc(Nc2ncc(Cl)c(Nc3ccccc3S(=O)(=O)C(C)C)n2)c2c(c1C1CCN(C(=O)C(C)C)CC1)C[C@@H](C)O2` [Example 50, (R)-1-(4-(7-((5-chloro-4-((2-(isopropylsulfonyl)phenyl)amino)pyrimidin-2-yl)amino)-2,5-dimethyl-2,3-dihydrobenzofuran-4-yl)piperidin-1-yl)-2-methylpropan-1-one] yielded an IC50 of 0.0812 µM. For `Cc1cc(Nc2ncc(Cl)c(Nc3ccccc3S(=O)(=O)C(C)C)n2)c2c(c1C1CCN(C(=O)CO)CC1)C[C@@H](C)O2` [Example 37, (R)-1-(4-(7-((5-chloro-4-((2-(isopropylsulfonyl)phenyl)amino)pyrimidin-2-yl)amino)-2,5-dimethyl-2,3-dihydrobenzofuran-4-yl)piperidin-1-yl)-2-hydroxyethanone], half-maximal inhibition (IC50) was put at 0.0125 µM.

`Cc1cc(Nc2ncc(Cl)c(Nc3ccccc3S(=O)(=O)C(C)C)n2)c2c(c1C1CCN(CC(N)=O)CC1)C[C@@H](C)O2` [Example 26, (R)-2-(4-(7-((5-chloro-4-((2-(isopropylsulfonyl)phenyl)amino)pyrimidin-2-yl)amino)-2,5-dimethyl-2,3-dihydrobenzofuran-4-yl)piperidin-1-yl)acetamide] registered an IC50 of 0.0137 µM. Next, `Cc1cc(Nc2ncc(Cl)c(Nc3ccccc3S(=O)(=O)C(C)C)n2)c2c(c1C1CCN(C[C@@H](C)O)CC1)C[C@@H](C)O2` [Example 23, (R)-1-(4-((R)-7-((5-chloro-4-((2-(isopropylsulfonyl)phenyl)amino)pyrimidin-2-yl)amino)-2,5-dimethyl-2,3-dihydrobenzofuran-4-yl)piperidin-1-yl)propan-2-ol]: 0.0123 µM; `CO[C@H](C)C(=O)N1CCC(c2c(C)cc(Nc3ncc(Cl)c(Nc4ccccc4S(=O)(=O)C(C)C)n3)c3c2C[C@H](C)O3)CC1` [Example 55, (R)-1-(4-((S)-7-((5-chloro-4-((2-(isopropylsulfonyl)phenyl)amino)pyrimidin-2-yl)amino)-2,5-dimethyl-2,3-dihydrobenzofuran-4-yl)piperidin-1-yl)-2-methoxypropan-1-one]: 0.0357 µM.

As for `Cc1cc(Nc2ncc(Cl)c(Nc3ccccc3S(=O)(=O)C(C)C)n2)c2c(c1C1CCN(C)CC1)C[C@@H](C)O2` [Example 10, (R)-5-chloro-N-2-(2,5-dimethyl-4-(1-methylpiperidin-4-yl)-2,3-dihydrobenzofuran-7-yl)-N-4-(2-(isopropylsulfonyl)phenyl)pyrimidine-2,4-diamine], the IC50 is under 0.0002 µM. The result for `Cc1cc(Nc2ncc(Cl)c(Nc3ccccc3S(=O)(=O)C(C)C)n2)c2c(c1C1CCN(C)CC1)C[C@H](C)O2` [Example 12] reads 0.004 µM. The result for `Cc1cc(Nc2nc(Nc3ccccc3S(=O)(=O)C(C)C)c3c(C)n[nH]c3n2)c2c(c1C1CCN(C)CC1)CCO2` [Example 2, N-4-(2-(isopropylsulfonyl)phenyl)-3-methyl-N-6-(5-methyl-4-(1-methylpiperidin-4-yl)-2,3-dihydrobenzofuran-7-yl)-1H-pyrazolo[3,4-d]pyrimidine-4,6-diamine] reads 0.0189 µM; that for `COCC1Cc2c(c(Nc3nc(Nc4ccccc4S(=O)(=O)C(C)C)c4c(C)n[nH]c4n3)cc(C)c2C2CCNCC2)O1` (stereo not shown) [Example 8, N-4-(2-(isopropylsulfonyl)phenyl)-N-6-(2-(methoxymethyl)-5-methyl-4-(piperidin-4-yl)-2,3-dihydrobenzofuran-7-yl)-3-methyl-1H-pyrazolo[3,4-d]pyrimidine-4,6-diamine], 0.0527 µM. Turning to `Cc1cc(Nc2ncc(Cl)c(Nc3ccccc3S(=O)(=O)C(C)C)n2)c2c(c1C1CCNCC1)C[C@@H](C)O2` [Example 9, (R)-5-chloro-N-2-(2,5-dimethyl-4-(piperidin-4-yl)-2,3-dihydrobenzofuran-7-yl)-N-4-(2-(isopropylsulfonyl)phenyl)pyrimidine-2,4-diamine], the midpoint of inhibition, the IC50, lay at 0.0983 µM. In turn, `CCC(=O)N1CCC(c2c(C)cc(Nc3ncc(Cl)c(Nc4ccccc4S(=O)(=O)C(C)C)n3)c3c2C[C@@H](C)O3)CC1` [Example 49, (R)-1-(4-(7-((5-chloro-4-((2-(isopropylsulfonyl)phenyl)amino)pyrimidin-2-yl)amino)-2,5-dimethyl-2,3-dihydrobenzofuran-4-yl)piperidin-1-yl)propan-1-one] had an IC50 of 0.0978 µM. Take `Cc1cc(Nc2ncc(Cl)c(Nc3ccccc3S(=O)(=O)C(C)C)n2)c2c(c1C1CCN(C(=O)[C@H](C)N)CC1)C[C@@H](C)O2` [Example 22, (S)-2-amino-1-(4-((R)-7-((5-chloro-4-((2-(isopropylsulfonyl)phenyl)amino)pyrimidin-2-yl)amino)-2,5-dimethyl-2,3-dihydrobenzofuran-4-yl)piperidin-1-yl)propan-1-one]: the half-inhibitory concentration (IC50) stood at 0.086 µM.

Regarding `CO[C@@H](C)C(=O)N1CCC(c2c(C)cc(Nc3ncc(Cl)c(Nc4ccccc4S(=O)(=O)C(C)C)n3)c3c2C[C@H](C)O3)CC1` [Example 58, (S)-1-(4-((S)-7-((5-chloro-4-((2-(isopropylsulfonyl)phenyl)amino)pyrimidin-2-yl)amino)-2,5-dimethyl-2,3-dihydrobenzofuran-4-yl)piperidin-1-yl)-2-methoxypropan-1-one], the IC50 was 0.141 µM. Compound `Cc1cc(Nc2nc(Nc3ccccc3S(=O)(=O)C(C)C)c3c(C)n[nH]c3n2)c2c(c1C1CCNCC1)C[C@@H](C)O2` [Example 3, (R)—N-6-(2,5-dimethyl-4-(piperidin-4-yl)-2,3-dihydrobenzofuran-7-yl)-N-4-(2-(isopropylsulfonyl)-phenyl)-3-methyl-1H-pyrazolo[3,4-d]pyrimidine-4,6-diamine] gave an IC50 of 0.061 µM. The result for `Cc1cc(Nc2ncc(Cl)c(Nc3ccccc3S(=O)(=O)C(C)C)n2)c2c(c1C1CCN(S(C)(=O)=O)CC1)C[C@H](C)O2` [Example 17, (S)-5-chloro-N-2-(2,5-dimethyl-4-(1-(methylsulfonyl)piperidin-4-yl)-2,3-dihydrobenzofuran-7-yl)-N-4-(2-(isopropylsulfonyl)phenyl)pyrimidine-2,4-diamine] reads 0.0685 µM; that for `CC(=O)N1CCC(c2c(C)cc(Nc3ncc(Cl)c(Nc4ccccc4S(=O)(=O)C(C)C)n3)c3c2C[C@@H](C)O3)CC1` [Example 16, (R)-1-(4-(7-((5-chloro-4-((2-(isopropylsulfonyl)phenyl)amino)pyrimidin-2-yl)amino)-2,5-dimethyl-2,3-dihydrobenzofuran-4-yl)piperidin-1-yl)ethanone], 0.0116 µM.
